Source: patent publication US20020058275A1, “Compositions, kits, and methods for effecting adenine nucleotide modulation of DNA mismatch recognition proteins” (Thomas Jefferson University, priority 1997, published 2002)

Legend:
hMSH2:hMSH6 heterodimer [1] = molecular target: T1, hMSH2:hMSH6 heterodimer (Homo sapiens, UniProt P43246+P52701); assay: ADP exchange assay (filter binding of [3H]-ADP); details: excess non-labeled ATP
T1 construct: made in house; host or cells: SF9 insect cells, baculovirus (pFastBac dual)
T1 sequence (P43246 whole entry): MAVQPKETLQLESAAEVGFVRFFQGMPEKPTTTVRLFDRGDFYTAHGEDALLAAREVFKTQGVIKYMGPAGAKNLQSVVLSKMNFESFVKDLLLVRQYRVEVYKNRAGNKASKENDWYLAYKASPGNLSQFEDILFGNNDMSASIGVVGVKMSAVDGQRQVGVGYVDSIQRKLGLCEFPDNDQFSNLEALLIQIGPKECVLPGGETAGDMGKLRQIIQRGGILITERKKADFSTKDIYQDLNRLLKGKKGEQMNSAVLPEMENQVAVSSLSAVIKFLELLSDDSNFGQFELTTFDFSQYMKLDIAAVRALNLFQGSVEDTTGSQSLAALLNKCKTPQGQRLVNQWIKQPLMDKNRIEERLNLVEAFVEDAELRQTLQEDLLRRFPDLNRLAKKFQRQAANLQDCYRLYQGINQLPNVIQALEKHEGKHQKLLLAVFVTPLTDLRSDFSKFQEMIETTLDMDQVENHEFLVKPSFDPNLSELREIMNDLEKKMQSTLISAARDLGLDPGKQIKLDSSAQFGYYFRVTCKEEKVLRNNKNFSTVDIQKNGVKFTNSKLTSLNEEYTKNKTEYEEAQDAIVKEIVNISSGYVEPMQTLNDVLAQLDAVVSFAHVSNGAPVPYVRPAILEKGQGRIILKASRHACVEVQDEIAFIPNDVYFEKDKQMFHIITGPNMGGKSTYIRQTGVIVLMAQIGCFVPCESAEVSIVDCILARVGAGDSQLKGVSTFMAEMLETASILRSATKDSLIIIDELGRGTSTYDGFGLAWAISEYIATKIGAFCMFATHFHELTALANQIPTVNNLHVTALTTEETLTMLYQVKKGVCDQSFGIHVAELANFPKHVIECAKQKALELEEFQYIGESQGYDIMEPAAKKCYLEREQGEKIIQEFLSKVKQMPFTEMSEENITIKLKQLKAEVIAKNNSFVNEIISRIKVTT
T1 sequence (P52701 whole entry): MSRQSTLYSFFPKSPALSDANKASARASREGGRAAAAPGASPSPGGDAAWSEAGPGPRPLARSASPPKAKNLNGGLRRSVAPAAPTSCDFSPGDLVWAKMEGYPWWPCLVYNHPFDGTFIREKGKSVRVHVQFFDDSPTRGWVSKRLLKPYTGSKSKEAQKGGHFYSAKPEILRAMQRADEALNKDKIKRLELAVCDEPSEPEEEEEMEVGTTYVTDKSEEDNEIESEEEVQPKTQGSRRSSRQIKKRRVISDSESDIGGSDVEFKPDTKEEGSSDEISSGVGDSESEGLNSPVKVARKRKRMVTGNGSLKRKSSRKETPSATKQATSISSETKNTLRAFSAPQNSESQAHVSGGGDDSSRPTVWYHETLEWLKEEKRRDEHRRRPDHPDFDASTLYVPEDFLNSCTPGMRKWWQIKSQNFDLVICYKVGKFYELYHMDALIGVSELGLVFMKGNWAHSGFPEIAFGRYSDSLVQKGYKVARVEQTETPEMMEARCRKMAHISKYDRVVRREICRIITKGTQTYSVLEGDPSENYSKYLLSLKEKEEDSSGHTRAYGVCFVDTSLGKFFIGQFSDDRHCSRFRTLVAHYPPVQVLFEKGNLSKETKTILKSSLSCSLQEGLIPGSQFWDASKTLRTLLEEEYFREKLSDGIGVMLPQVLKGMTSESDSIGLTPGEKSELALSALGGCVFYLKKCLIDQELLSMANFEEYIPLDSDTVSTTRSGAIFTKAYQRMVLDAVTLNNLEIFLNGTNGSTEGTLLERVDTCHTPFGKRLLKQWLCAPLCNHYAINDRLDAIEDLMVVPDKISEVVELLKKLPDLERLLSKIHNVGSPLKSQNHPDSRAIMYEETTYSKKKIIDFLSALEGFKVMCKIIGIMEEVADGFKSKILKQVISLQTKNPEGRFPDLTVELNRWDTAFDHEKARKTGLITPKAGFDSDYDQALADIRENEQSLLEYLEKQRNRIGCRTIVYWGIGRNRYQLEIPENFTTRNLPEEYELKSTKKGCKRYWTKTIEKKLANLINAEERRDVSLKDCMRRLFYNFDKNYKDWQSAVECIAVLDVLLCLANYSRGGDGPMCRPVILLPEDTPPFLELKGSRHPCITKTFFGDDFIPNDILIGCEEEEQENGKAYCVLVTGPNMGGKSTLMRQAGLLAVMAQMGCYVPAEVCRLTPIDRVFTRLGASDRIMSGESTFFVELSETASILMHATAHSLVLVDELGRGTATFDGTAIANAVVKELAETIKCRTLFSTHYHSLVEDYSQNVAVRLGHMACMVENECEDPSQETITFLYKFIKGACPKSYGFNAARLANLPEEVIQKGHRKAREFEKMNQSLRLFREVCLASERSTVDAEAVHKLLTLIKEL
Description: The ADP-ATP exchange rate was determined in a reaction mixture which comprised Buffer Q, 2.3 micromolar [^3H]-ADP, and 60 nanomolar hMSH2:hMSH6 heterodimer. Buffer Q comprised 25 millimolar HEPES which had been adjusted to pH 7.8 using NaOH, 75 millimolar NaCl, 10 millimolar MgCl2, 1 millimolar DTT, and 15% (v/v) glycerol. This reaction mixture was incubated for ten minutes at room temperature. 240 nanomolar G/T-mismatched 39-base pair DNA substrate was added to the reaction mixture, and the incubation was continued for an additional ten minutes. The final volume of the reaction mixture was 10 microliters. […] Reactions were incubated at 25° C. for a selected time and then halted by diluting the reaction mixture with 4 milliliters of an ice-cold stop buffer comprising 25 millimolar HEPES which had been adjusted to pH 7.8 using NaOH, 100 millimolar NaCl, and 10 millimolar MgCl2.
Each halted reaction mixture was immediately filtered on a HAWP nitrocellulose membrane (Millipore, Bedford, Mass.) and washed thrice with 4 milliliters of the ice-cold stop buffer. […] Radioactivity retained on the filters was quantified using a Beckman scintillation counter. […] The amount of [^3H]-ADP retained on the membrane to which the control reaction mixture was applied was considered to correspond to the amount of radioactivity retained when 100% of the complex had [^3H]-ADP bound thereto.

hMSH2:hMSH6 heterodimer [2] = molecular target: T1, hMSH2:hMSH6 heterodimer; assay: Gel mobility shift assay of adenine nucleotide effects on mismatch binding and release; assay type: biochemical; details: for effect on G/T mismatch binding / release of the heterodimer from G/T-mismatched DNA substrate: nucleotide added to the mismatch binding reaction mixture, FIG. 3 at 25 and 250 micromolar; for IC50: G/T-mismatched DNA substrate, read-out: IC50 (concentration required to cause release of 50% of a population of heterodimers from a G/T-mismatched DNA substrate); for S-shifted material re-associated with the DNA as NS-shifted heterodimer: increasing amounts of nucleotide added
[3] = molecular target: T2, hMSH2:hMSH6 heterodimer ATPase (Homo sapiens, UniProt P43246+P52701); assay: ATPase assays (steady state and initial velocity); assay type: biochemical
T2 construct: made in house; host or cells: SF9 insect cells, baculovirus (pFastBac dual)
T2 sequence (P43246 whole entry): as the sequence (P43246 whole entry) above
T2 sequence (P52701 whole entry): as the sequence (P52701 whole entry) above
Description: Buffer P comprised 40 millimolar HEPES which had been adjusted to pH 7.8 using NaOH, 75 millimolar NaCl, 10 millimolar MgCl2, 1.75 millimolar DTT, and 0.075 millimolar EDTA, and 15% (v/v) glycerol. Steady state reaction measurements were made using 60 nanomolar hMSH2:hMSH6 heterodimer and either 240 nanomolar homoduplex 39-base pair DNA substrate or 240 nanomolar G/T mismatched 39-base pair DNA substrate. Reaction mixtures were incubated at 37° C. for thirty minutes, and the reaction was stopped by addition of 400 microliters of a solution comprising 10% (w/v) activated charcoal (Sigma Chemical Co., St. Louis, Mo.) and 1 millimolar EDTA. Charcoal was pelleted by centrifuging the mixture at 10,000 rotations per minute for ten minutes. The 32p content of duplicate 100 microliter aliquots of the supernatant was assessed by liquid scintillation.
Aliquots were removed at selected times and electrophoresed as described herein. A control aliquot was removed and prepared for electrophoresis prior to addition of the MgCl2-containing Buffer P to the reaction mixture.
TLC was performed as previously described (Fishel et al., 1988, Proc. Natl. Acad. Sci. USA 85:36-40).

[4] = test system: G/T-mismatched 81-base pair DNA substrate; assay: Gel mobility shift and DNase footprint assays of heterodimer binding to mismatched DNA
Description: (§1) Gel mobility shift assays were performed by incubating a hMSH2:hMSH6 heterodimer and 9 femtomoles of either the ^32P-labeled homologous 81-base pair DNA substrate or the ^32P-labeled G/T-mismatched 81-base pair DNA substrate in a buffer comprising 50 millimolar NaCl, 25 millimolar HEPES buffer which had been adjusted to pH 7.5 using NaOH, 1 millimolar DTT, 0.01 millimolar EDTA, and 15% (v/v) glycerol. The buffer included 10 nanograms per microliter of poly dI-dC (Pharmacia LKB Biotechnology Inc., Piscataway, N.J.). […] In certain experiments described herein, the incubation mixture further comprised selected concentrations of nucleotides or non-labeled DNA. In other experiments described herein, the incubation mixture further comprised 1 millimolar MgCl2 or 5 millimolar EDTA. […] Each incubation mixture was applied to a gel comprising 4% (w/v) polyacrylamide (29:1 ratio of acrylamide:bis-acrylamide) 4% (v/v) glycerol, 40 millimolar Tris acetate buffer (pH 7.8), and 1 millimolar EDTA. Electrophoresis was performed by applying 200 volts to the gel for two hours. Following electrophoresis, each gel was dried and quantitated using a phosphoimaging device obtained from Molecular Dynamics.
Incubation of the hMSH2:hMSH6 heterodimer with ^32P-labeled DNA substrates was performed as described for gel mobility shift assays, except that 18 femtomoles of 32p-labeled DNA substrate was used in each assay. Following incubation, 80 microliters of a buffer comprising 50 millimolar NaCl, 25 millimolar HEPES buffer which had been adjusted to pH 7.8 using NaOH, 1 millimolar DTT, 10 nanograms per microliter poly dI-dC, 1.25 millimolar CaCl2, 3.1 millimolar MgCl2, 10% (v/v) glycerol, and 33 picograms per microliter DNase (Boehringer Mannheim, Indianapolis, Ind.) was added to each incubation mixture. […]

[5] = test system: homologous 81-base pair DNA substrate; assay: Gel mobility shift and DNase footprint assays of heterodimer binding to homoduplex DNA; details: homoduplex concentrations greater than 400 nanomolar
Description: as §1, with “Dynamics. […]” for “Dynamics.”

hMSH2:hMSH6 heterodimer [6] = molecular target: T3, hMSH2:hMSH6 heterodimer (Homo sapiens, UniProt P43246;P52701 P43246:1-934,P52701:1-1360); assay: EMSA; apparent Kd; no adenine nucleotide, no Mg; 50 mM NaCl, HEPES pH 7.5, poly dI-dC, 37 C; details: tags: 6xHis at N-terminus of hMSH6; Sf9 baculovirus (pFastBac dual) co-expression; label: 32P 5' end; single G/T mismatch
T3 sequence (P43246 whole entry, chain 1 of 2): as the sequence (P43246 whole entry) above
T3 sequence (P52701 whole entry, chain 2 of 2): as the sequence (P52701 whole entry) above
Description: (§2) The buffer included 10 nanograms per microliter of poly dI-dC (Pharmacia LKB Biotechnology Inc., Piscataway, N.J.). […] In certain experiments described herein, the incubation mixture further comprised selected concentrations of nucleotides or non-labeled DNA. In other experiments described herein, the incubation mixture further comprised 1 millimolar MgCl₂ or 5 millimolar EDTA. […] Each incubation mixture was applied to a gel comprising 4% (w/v) polyacrylamide (29:1 ratio of acrylamide:bis-acrylamide) 4% (v/v) glycerol, 40 millimolar Tris acetate buffer (pH 7.8), and 1 millimolar EDTA. Electrophoresis was performed by applying 200 volts to the gel for two hours. Following electrophoresis, each gel was dried and quantitated using a phosphoimaging device obtained from Molecular Dynamics.
(§3) The apparent dissociation constant (Kd) was determined in a simple buffer system comprising neither an adenine nucleotide nor magnesium using the homologous 81-base pair DNA substrate and the G/T-mismatched 81-base pair DNA substrate described herein.
hMSH2:hMSH6 heterodimer [7] = molecular target: T3, hMSH2:hMSH6 heterodimer; assay: footprint; DNase footprint; about 25 nt asymmetrically protected on both strands; no adenine nucleotide; details: tags: 6xHis at N-terminus of hMSH6; Sf9 baculovirus (pFastBac dual) co-expression; label: 32P 5' end; single G/T mismatch
Description: as §3
hMSH2:hMSH6 heterodimer [8] = molecular target: T3, hMSH2:hMSH6 heterodimer; assay: EMSA; no NS product observed with 39-bp homoduplex; details: tags: 6xHis at N-terminus of hMSH6; Sf9 baculovirus (pFastBac dual) co-expression; fully complementary homoduplex
Description: as §2

[9] = 0.2 millimolar ATP, 1 millimolar MgCl2, ADP 0 to 3.2 millimolar
[10] = ATP alone as a substrate (absence of DNA)
[11] = ATP and G/C-mismatched DNA as substrates
[12] = ATP and G/T-mismatched DNA as substrates

Nc1ncnc2c1ncn2[C@@H]1O[C@H](COP(=O)(O)OP(=O)(O)O)[C@@H](O)[C@H]1O [ADP]
half-life of the ADP-bound heterodimer (hMSH2:hMSH6 heterodimer [1]; absence of DNA): greater than eight hundred
half-life of the ADP-bound heterodimer (hMSH2:hMSH6 heterodimer [1]; presence of G/T-mismatched DNA substrate): less than two
excess of ADP giving approximately complete reversal of ATP-caused substrate release (hMSH2:hMSH6 heterodimer [2]; [9]): 16 fold
excess of ADP to ATP giving reversal of approximately half of the ATP-caused substrate release (hMSH2:hMSH6 heterodimer [2]; [9]): 2- to 3 fold
effect on G/T mismatch binding / release of the heterodimer from G/T-mismatched DNA substrate (hMSH2:hMSH6 heterodimer [2]): increased binding affinity

Nc1ncnc2c1ncn2[C@@H]1O[C@H](COP(=O)(O)OP(=O)(O)CP(=O)(O)O)[C@@H](O)[C@H]1O [AMP-PCP, adenyl-(beta-, gamma-methylene)-diphosphonate]
effect on G/T mismatch binding / release of the heterodimer from G/T-mismatched DNA substrate (hMSH2:hMSH6 heterodimer [2]): Failure of AMP-PNP and AMP-PCP to stimulate release

Nc1ncnc2c1ncn2[C@@H]1O[C@H](COP(=O)(O)OP(=O)(O)NP(=O)(O)O)[C@@H](O)[C@H]1O [AMP-PNP, adenylyl-imidodiphosphate]
effect on G/T mismatch binding / release of the heterodimer from G/T-mismatched DNA substrate (hMSH2:hMSH6 heterodimer [2]): Failure of AMP-PNP and AMP-PCP to stimulate release

Nc1ncnc2c1ncn2[C@@H]1O[C@H](COP(=O)(O)OP(=O)(O)OP(=O)(O)O)[C@@H](O)[C@H]1O [ATP]
mismatched DNA substrate binding activity recovered after magnesium addition (hMSH2:hMSH6 heterodimer [2]; 15 micromolar nucleotide, ten minutes of incubation at 37° C.): ~70%
IC50 (hMSH2:hMSH6 heterodimer [2]): ~3000 nM
effect on binding of the heterodimer to homoduplex DNA (NS binding) (hMSH2:hMSH6 heterodimer [2]; homoduplex DNA): not affected
S-shifted material re-associated with the DNA as NS-shifted heterodimer (hMSH2:hMSH6 heterodimer [2]): approximately 15%
calculated Kcat for ATP ([3]; 37° C.): > 20 min⁻¹
Km [3, 10]: ~10 µM
kcat [3, 10]: about 0.9 minute^1
Km [3, 11]: ~23 µM
kcat [3, 11]: about 7.4 minute-^1
Km [3, 12]: ~46 µM
kcat [3, 12]: about 26 minute-^1

Nc1ncnc2c1ncn2[C@H]1C[C@H](O)[C@@H](COP(=O)(O)OP(=O)(O)OP(=O)(O)O)O1 [dATP, 2′-deoxy adenosine triphosphate]
effect on G/T mismatch binding / release of the heterodimer from G/T-mismatched DNA substrate (hMSH2:hMSH6 heterodimer [2]): caused release

Adenosine-5′-O-3-thiotriphosphate [ATP-gamma-S]
IC50 (hMSH2:hMSH6 heterodimer [2]): 3000 nM
mismatched DNA substrate binding activity recovered after magnesium addition (hMSH2:hMSH6 heterodimer [2]; following incubation at 37° C., time not stated): about 22%
S-shifted material re-associated with the DNA as NS-shifted heterodimer (hMSH2:hMSH6 heterodimer [2]): approximately 15%

hMSH2:hMSH6 heterodimer: purified human mismatch recognition complex of hMSH2 and six-histidine-tagged hMSH6, overexpressed in SF9 insect cells
half-life of the G/T-mismatched DNA substrate-bound heterodimer ([4]; 400-fold excess of non-labeled homoduplex DNA, no ATP): greater than ten
Kd ([4]; buffer comprising neither an adenine nucleotide nor magnesium, gel shift and DNase footprint assays, read-out: apparent dissociation constant (Kd) for G/T mismatches): ~20 nM
efficiency of binding to a G/T mismatch relative to hMSH2 alone ([4]; compared with literature values for hMSH2 alone): at least ten
saturability of binding of non-mismatched DNA [5]: not saturable

B1: G/T-mismatched 81-bp duplex (dsDNA)
DNA 1: AAAGCTGGAGCTGAAGCTTAGCTTAGGATCATCGAGGATCGAGCTCGGTGCAATTCAGCGGTACCCAATTCGCCCTATAGT
DNA 2: ACTATAGGGCGAATTGGGTACCGCTGAATTGCACCGAGCTTGATCCTCGATGATCCTAAGCTAAGCTTCAGCTCCAGCTTT
modifications: [G41 (strand 1) opposite T41 (strand 2), G/T mismatch]
Kd (hMSH2:hMSH6 heterodimer [6]): 20 nM
Kd (hMSH2:hMSH6 heterodimer [7]): 20 nM

B2: homologous 39-bp duplex (dsDNA)
DNA 1: CGGCGAATTCCACCAAGCTTGATCGCTCGAGGTACCAGG
DNA 2: CCTGGTACCTCGAGCGATCAAGCTTGGTGGAATTCGCCG
binding result (hMSH2:hMSH6 heterodimer [8]): no binding
